# Patent US20080254497A1, “Response Predictors for Erbb Pathway-Specific Drugs” (MONOGRAM BIOSCIENCES, INC., priority 2004, published 2008)
# What was measured:
# [1] = test system: activation of EGFR, erbB2, Erk1/2, and Akt; conditions: treatment of tumor xenografts; cited from earlier work
# [2] = test system: human cell lines (head and neck, breast, and gastric); conditions: cited from earlier work
# Her1 phosphorylation = experiment: Releasable molecular tag assay of cell lysates for Her1 phosphorylation; format: cell-based, human; conditions: BT-20 cells, increasing ligand concentration, FIG. 6B
# Procedure: Sample preparation was carried out essentially as described in Example 2.
# Assay design: A monoclonal antibody specific to the receptor is separately conjugated with either a molecular tag or biotin (that is then linked to a photosensitizer via an avidin bridge), so that the cleaving probe and a binding compound compete to bind to the same epitope in this example. Another binding compound is used that consists of a second antibody recognizing an overlapping epitope on the receptor, so that a ratiometric signal can be generated as a measure of homodimerization. The signal derived from the second antibody also provides a measure of the total amount of receptor in a sample. The total amount of receptor is determined in a separate assay well. Receptor phosphorylation can be quantified together with either homodimerization or total receptor amount.
# The assay volume is 40 ul and the general procedure is similar to that of Example 2. Two assay wells, A and B, are set up for each sample to quantify homodimerization and total amount of receptor separately.
# • Pro10_anti-Her-1: 0.05-0.1 ug/ml • Pro2_anti-phospho-Tyr: 0.1 ug/ml • Biotin_anti-Her-1: 1-2 ug/ml
# 7.5.2 Data Analysis: • 1. Normalize RFU signal of each molecular tag against CE reference standard A315. • 2. Subtract RFU of “no lysate” background control from corresponding molecular tag signals. • 3. […]
# [3] = test system: Her receptor phosphorylation; experiment: Fixed cell pellet sections, receptor phosphorylation; format: cell-based, human; conditions: 100 nM vs non-stimulated
# Procedure: In this example, model fixed tissues made from pelleted cell lines were assayed for the presence of Her receptor dimers. The assay design for heterodimers was essentially the same as that described in FIG. 4A, with exceptions as noted below. That is, four components are employed: (i) a cleaving probe comprising a biotinylated monoclonal antibody conjugated to a cleavage-inducing moiety (in this example, a photosensitizer-derivatized streptavidin, as illustrated in FIG. 3E) and specific for one of the receptors of the dimer, (ii) a monoclonal antibody derivatized with a first molecular tag and specific for the same receptor as the cleaving probe, (iii) a monoclonal antibody derivatized with a second molecular tag and specific for the receptor opposite to that the cleaving probe is specific for, and (iv) a monoclonal antibody derivatized with a third molecular tag and specific for an intracellular phosphorylated tyrosine. The assay design for homodimers was essentially the same as that described in FIG. 1D, with exceptions as noted below.
# In each case, model fixed tissues were prepared as follows: cells grown on tissue culture plates were stimulated with either EGF or HRG as described in the prior examples, after which they were washed and removed by scrapping. […]
# Her2-Her3 heterodimers = target: T1, Her2-Her3 heterodimers (Homo sapiens, UniProt P21860); experiment: Releasable molecular tag assay of cell lysates for Her2-Her3 heterodimers; format: cell-based; conditions: MCF-7 cells, increasing ligand concentrations, 10 minutes at 37° C., FIG. 4C
# T1 construct: endogenous in cells; host or cells: MCF-7
# Procedure: Measurements are made using three binding compounds and a cleaving probe as described below.
# 7.3.1 Sample Preparation: • 1. Serum-starve breast cancer cell line culture overnight before use. • 2. […] Aspirate culture media, transfer onto ice, and add lysis buffer to lyse cells in situ. • 4. Scrape and transfer lysate to microfuge tube. Incubate on ice for 30 min. Microfuge at 14,000 rpm, 4° C., for 10 min. (Centrifugation is optional.) • 5. Collect supernatants as lysates and aliquot for storage at −80° C. until use.
# Assay design: As illustrated diagrammatically in FIG. 4A, Her2-Her3 heterodimers (900) are quantified ratiometrically based on the binding of cleaving probe (902) and binding compounds (904), (906), and (908). A photosensitizer indicated by “PS” is attached to cleaving probe (902) via an avidin-biotin linkage, and binding compounds (904), (906), and (908) are labeled with molecular tags Pro14, Pro10, and Pro11, respectively. Binding compound (904) is specific for a phosphorylation site on Her3.
# The total assay volume is 40 ul. The lysate volume is adjusted to 30 ul with lysis buffer. […]
# 7.3.3 Data Analysis: • 1. Normalize relative fluorescence units (RFU) signal of each molecular tag against CE reference standard A315 (a fluorescein-derivatized deoxyadenosine monophosphate that has known peak position relative to molecular tags from the assay upon electrophoretic separation). • 2. […]
Compound,"activation of EGFR, erbB2, Erk1/2, and Akt in tumor xenografts [1]","IC90, growth inhibition of human cell lines ([2]; head and neck, breast, and gastric cell lines in vitro) [µg/mL]",outgrowth following cessation of treatment ([2]; up to 18 days following cessation of treatment),quantity of Her1 phosphorylation (Her1 phosphorylation),"Her receptor phosphorylation ([3]; fixed pellets of 22Rv1 cells, FIG. 15D)","intracellular phosphorylation ([3]; fixed pellets of MDA-MB-468 cells, FIG. 15A)",quantity of Her2-Her3 heterodimers (Her2-Her3 heterodimers)
CS(=O)(=O)CCNCc1ccc(-c2ccc3ncnc(Nc4ccc(OCc5cccc(F)c5)c(Cl)c4)c3c2)o1 [GW572016],inhibition,< 1.313,no outgrowth observed,–,–,–,–
"EGF: epidermal growth factor, peptide that binds to the cell-surface EGFR; used to stimulate cell lines",–,–,–,increases,up-regulation,increases,essentially no change
